In patent US20260365662A1, “ISOANDROGRAPHOLIDE ANALOGS AND METHOD FOR TREATMENT USING THE SAME” (Enveda Therapeutics, Inc., priority 2023, published 2026):
pIC50: −log10 of the molar value. Each block holds one molecule with its values, some of them ahead of it. Non-standard residues stand in square brackets, D forms with d. Residues, ends and D or L forms follow the SMILES beside them. *: point of attachment. Bz = O=C(c1ccccc1)*

Tests used:
mice [1] = assay: Bleomycin-induced pulmonary fibrosis model, prophylactic and treatment groups (Example 3); assay type: in vivo, mouse
Description: Prophylactic group (P): At Day 0, prophylactic treatment of mice (P) with Compound 1 or pirfenidone by PO was performed. From Day 0 to Day 20, the prophylactically treated mice (P) were intratracheally instilled with bleomycin. At Day 21, the mice (P) were euthanized.
Treatment group (T): Likewise, from Day 0 to Day 7, naïve mice (T) were intratracheally instilled with bleomycin. At Day 7, the naïve mice were treated with Compound 1. Bleomycin instillation continued to Day 20. At Day 21, the mice (T) were euthanized.
FIGS. 2A-2D and FIGS. 3A-3G illustrate the therapeutic effects of Compound 1 at 10 mpk (P), 30 mpk (P), 100 mpk (P), and 100 mpk (T), as compared to a normal control, treatment-free control (bleomycin), and pirfenidone (comparative) at 100 mpk (P) in a bleomycin-induced model of pulmonary fibrosis.

mice [2] = assay: DSS mouse model of colitis; assay type: in vivo; details: 30 mpk, 2% DSS, Day 8
Description: From Day-3 to Day 8, mice were treated with Compound 1, fingolimod, or mesalamine. From Day-3 to Day 0, mice were randomized and acclimated to their environment while assessing a disease activity index (DAI). At Day 1, 2% w/w of DSS in water was administered to the mice by PO. From Day 1 to Day 7, DAI continued to be assessed. At Day 8, the mice were euthanized post the final dose of Compound 1, fingolimod, or mesalamine.
FIGS. 8A-8D present the efficacy of Compound 1 at 30 mpk as compared to vehicle control, DSS control, fingolimod at 1 mpk (comparative), and mesalamine at 50 mpk (comparative) in a DSS mouse model of colitis. The graphs show the effect of Compound 1 on disease activity index, stool consistency, rectal bleeding index, and combined histopathology.

mice [3] = assay: Chlorhexidine gluconate-induced peritoneal fibrosis model; assay type: in vivo, mouse; details: 10, 30, 100 mpk, 0.1% CG, Day 22
Description: From Day 1 to Day 21, 0.1% w/w of chlorhexidine gluconate (CG) in water was administered, every other day, to the mice by PO to induce peritoneal fibrosis. From Day 1 to Day 21, mice were treated with Compound 1 or an inhibitor of TGFβ receptor I (ALK5) (SB525334). At Day 22, the mice were euthanized.
FIGS. 9A and 9B illustrate the effect of Compound 1 at 10, mpk, 30, mpk, and 100 mpk as compared to sham control, 0.1% chlorhexidine gluconate (CG) and vehicle, and an inhibitor of TGFβ receptor I (ALK5) (SB525334) at 30 mpk (comparative), and mesalamine at 50 mpk (comparative) on average peritoneal thickness and α-SMA expression in a mouse model of peritoneal fibrosis.

mice [4] = assay: Imiquimod (IMQ) psoriasis mouse model; assay type: in vivo; details: 30 mpk P.O., BID, 5% imiquimod, Day 0 to Day 7
Description: From Day 0 to Day 7, 5% w/w of imiquimod (IMQ) in water was administered to the mice by PO to induce psoriasis. From Day 0 to Day 7, mice were treated with Compound 1, clobetasol, or dexamethasone. At Day 7, the mice were euthanized.
FIGS. 10A and 10B illustrate the effect of Compound 1 at 30 mpk (P.O., BID) as compared to naive control, vehicle control, 0.05% clobetasol, and dexamethasone at 1 mpk (P.O., QD) on psoriasis in a mouse model. The graphs show the changes in ear thickness and Psoriasis Area and Severity Index (PASI) score over time.

mice [5] = assay: MC903-induced atopic dermatitis mouse model (Example 11); assay type: in vivo; details: 3, 10, 30 mpk PO, BID, MC903, Day 14
Description: From Day 1 to Day 14, 2 nmol in 100% ethanol, 50 μl/mouse/back skin (MC903) was administered every other day to mice to induce atopic dermatitis. From Day 1 to Day 14, mice were treated with Compound 1 or clobetasol. At Day 14, the mice were euthanized.
FIGS. 11A-11C illustrate the effects of Compound 1 at 3 mpk, 10 mpk, and 30 mpk (PO, BID) as compared to normal control, vehicle control, and 0.05% clobetasol (topical, QD) (comparative) on atopic dermatitis in a mouse model.

human neutrophils [6] = assay: IL-8 induced neutrophil chemotaxis; assay type: cell-based; details: for pIC50: IL-8 (2 nM)
Description: (§1) Freshly isolated healthy human neutrophils were isolated and utilized. The neutrophils were treated with IL-8 at 2 nM or fMLP at 100 nM to induced chemotaxis.
(§2) FIGS. 7A and 7B display the percentage of inhibition of 2 nm of IL-8 induced chemotaxis at different compound concentrations of Compound 3 as compared to Navarixin (comparative). FIGS. 7C and 7D display the percentage of inhibition of 100 nm fMLP induced chemotaxis at different compound concentrations of Compound 3 as compared to HCH6-1 (comparative). Table 3 below provides the IC50 values for each stimulus, providing a comparative measure of the compounds' efficacy.

human neutrophils [7] = assay: fMLP induced neutrophil chemotaxis; assay type: cell-based; details: for pIC50: fMLP (100 nM), Donor 1
Description: as §1, §2

mice [8] = assay: Bleomycin-induced pulmonary fibrosis model, prophylactic, 21 days (Example 2); assay type: in vivo, mouse; details: PO, Day 21
Description: At Day 0, prophylactic treatment of mice with Compound 3 or pirfenidone by PO was performed. From Day 0 to Day 20, the prophylactically treated mice were intratracheally instilled with bleomycin. At Day 21, the mice were euthanized.
As depicted in FIGS. 1A-1F, a series of bar graphs illustrate the reduction in fibrotic symptoms in a bleomycin-induced pulmonary fibrosis model upon treatment with Compound 3 at 1 mpk, 3 mpk, 10 mpk, and 100 mpk as compared to a normal control, treatment-free control (bleomycin), and pirfenidone (comparative) at 100 mpk. Parameters such as collagen deposition, collagen accumulation, collagen fiber formation, inflammatory cytokine expression, and inflammatory cell infiltration were measured.

mice [9] = assay: LPS-induced acute lung injury model (Example 4); assay type: in vivo, mouse; details: 30 mpk PO, aerosolized LPS 1 mg/mL, 4 hours
Description: At time point −1 hour, prophylactic treatment of mice by PO with Compound 3 or dexamethasone was performed. From time point −0.5 hours to 0 hours, neutrophil activation was induced with aerosolized LPS at 1 mg/mL. At timepoint 4 hours, blood, BALF, and lung tissue were harvested.
FIGS. 4A-4G present the effects of Compound 3 at 30 mpk as compared to naive control, treatment-free control (LPS), and dexamethasone (comparative) at 5 mpk on inflammatory cytokines in a lipopolysaccharide (LPS)-induced acute lung injury model. The bar graphs compare the levels of TNF-α, IL-6, IL-36γ, Total cell count (BALF), neutrophils (BALF), neutrophils (blood), and eosinophils (BALF), MIP-2.

mice [10] = assay: Bleomycin-induced inflammation and cell counts, 10 days (Example 5); assay type: in vivo, mouse; details: 3, 10, 30 mpk PO, Day 10
Description: At Day 0, prophylactic treatment of mice with Compound 3 or pirfenidone by PO was performed. From Day 0 to Day 9, the prophylactically treated mice were intratracheally instilled with bleomycin. At Day 10, the mice were euthanized.
As shown in FIGS. 5A-5G, the impact of Compound 3 at 3 mpk, 10 mpk, and 30 mpk as compared to normal control, treatment-free control (bleomycin), and pirfenidone (comparative) at 100 mpk on various cell counts associated with inflammation was evaluated. The bar graphs compare alveolar macrophage counts, neutrophil counts, lymphocyte counts, inflammation score, eotaxin (BALF), INFγ (lung), and IL-6 (lung).

[11] = test system: human precision-cut lung slices; assay: Inflammation and fibrosis biomarkers in human precision-cut lung slices; assay type: cell-based; details: 5 μM and 50 uM, hPCLS
Description: Cryopreserved human precision-cut lung slices (hPCLS) were prepared and used to analyze biomarkers in inflammatory and fibrotic models. Information of the donors that provided the hPCLS is provided below.
FIGS. 6A-6D illustrate the dose-dependent impact of Compound 3 at 5 μM and 50 uM as compared to vehicle control, nintedanib at 2.5 μM (comparative), and pirfenidone at 2.5 uM (comparative) on biomarkers associated with inflammation and fibrosis in human pulmonary cells.

[12] = 10, 30, 100 mpk (P) and 100 mpk (T), bleomycin

SMILES: C[C@@]1(C#N)[C@H](O)CC[C@]2(C)[C@@H]1CC[C@@]1(C)O[C@H](C3=CCOC3=O)C[C@@H]21 [Compound 1, (2S,3aR,5aS,6R,7R,9aR,9bS)-7-hydroxy-3a,6,9a-trimethyl-2-(2-oxo-2,5-dihydrofuran-3-yl) dodecahydronaphtho[2,1-b]furan-6-carbonitrile]
- Ashcroft score (mice [1]; [12]): lower the Ashcroft score
- hydroxyproline content (mice [1]; [12]): reduce hydroxyproline content
- inflammatory cell infiltration in lung tissue (mice [1]; [12]): decrease inflammatory cell infiltration
- fibrosis and lung tissue morphology (histology) (mice [1]; H&E staining, 100× magnification, compared to control): reduced fibrosis and improved lung tissue morphology
- symptoms of colitis, such as weight loss and increased disease severity (mice [2]): effectively mitigate the symptoms of colitis
- average peritoneal thickness (mice [3]): reduction
- α-SMA expression (mice [3]): reduction
- skin condition (mice [4]): improvements in skin condition
- symptoms (ear thickness, PASI score) (mice [4]): reduction in symptoms
- dermatitis severity (mice [5]): decrease in dermatitis severity
- skin thickness (mice [5]): decrease

- pIC50 (human neutrophils [6]; Homo sapiens, Neutrophil, All donors): 5.69
- pIC50 (human neutrophils [6]; Homo sapiens, Neutrophil, Donor 1): 5.85
- pIC50 (human neutrophils [6]; Homo sapiens, Neutrophil, Donor 2): 5.50
- pIC50 (human neutrophils [6]; Homo sapiens, Neutrophil, Donor 3): 5.79
- pIC50 (human neutrophils [7]; Homo sapiens, Neutrophil): 6.10
SMILES: C[C@@]12CCC(=O)N[C@@](C)(C#N)[C@H]1CC[C@@]1(C)O[C@H](C3=CCOC3=O)C[C@@H]21 [Compound 3, (2S,3aR,5aS,6R,10aR,10bS)-3a,6,10a-trimethyl-8-oxo-2-(2-oxo-2,5-dihydrofuran-3-yl) dodecahydro-2H-benzofuro[5,4-c]azepine-6-carbonitrile]
- inhibition of neutrophil chemotaxis (human neutrophils [6]; induced by IL-8 at 2 nM): concentration-dependent inhibition
- inhibition of neutrophil chemotaxis (human neutrophils [7]; induced by fMLP at 100 nM): concentration-dependent inhibition
- collagen accumulation (mice [8]): notable decrease
- collagen deposition (mice [8]): notable decrease
- collagen fiber formation (mice [8]): notable decrease
- inflammatory cell infiltration (mice [8]): notable decrease
- inflammatory cytokine expression (mice [8]): notable decrease
- cytokine levels (mice [9]): dose-dependent reduction in cytokine levels
- inflammation and cell counts (mice [10]): reduction in inflammation and cell counts
- IL-6 level [11]: corresponding decrease
- IL-8/CXCL8 level [11]: corresponding decrease
- MCP-1/CCL-2 level [11]: corresponding decrease

- pIC50 (human neutrophils [7]): 6.34
SMILES: COC(=O)[C@@H](Cc1ccccc1)NC(=O)[C@H](Cc1c[nH]c2ccccc12)NC(=O)c1ccccc1 [HCH6-1, reference compound] (Bz-Trp-[dF]-OMe)

- pIC50 (human neutrophils [6]; All donors): 5.63
- pIC50 (human neutrophils [6]; Donor 1): 5.91
- pIC50 (human neutrophils [6]; Donor 2): 5.57
- pIC50 (human neutrophils [6]; Donor 3): 5.50
SMILES: CC[C@@H](Nc1c(Nc2cccc(C(=O)N(C)C)c2O)c(=O)c1=O)c1ccc(C)o1 [Navarixin, reference compound]
